From PubChem BioAssay AID330 (DTP/NCI, 2004)
Values joined by “and” are separate entries in the source; they are usually repeats but may differ in a detail not shown here. Identical values can stand only once. Toxic doses and inconclusive results are not listed.

System: P388 leukemia ip, CD2F1 mice, survival T/C
Assay: NCI In Vivo Anticancer Drug Screen. Data for tumor model P388 Leukemia (intraperitoneal) in CD2F1 (CDF1) mice
Settings: endpoint: median survival time, higher = longer survival
How it was run: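 Mice carrying the transplanted tumor received test compound or vehicle. Survival was recorded in each group, and the value is the treated-group measurement divided by that of the vehicle-treated control group.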

[1] = dose: 60.0 mg/kg/injection, schedule: Q01DX005 (ip), vehicle: saline with Tween-80
[2] = dose: 120.0 mg/kg/injection, schedule: Q01DX005 (ip), vehicle: saline with Tween-80
[3] = dose: 240.0 mg/kg/injection, schedule: Q01DX005 (ip), vehicle: saline with Tween-80
[4] = dose: 60.0 mg/kg/injection, schedule: Q01DX005 (ip), vehicle: saline
[5] = dose: 100.0 mg/kg/injection, schedule: Q04DX003 (ip), vehicle: saline with Tween-80
[6] = dose: 200.0 mg/kg/injection, schedule: Q04DX003 (ip), vehicle: saline with Tween-80
[7] = dose: 50.0 mg/kg/injection, schedule: Q01DX005 (ip), vehicle: Klucel (hydroxypropylcellulose) (HPC)
[8] = dose: 100.0 mg/kg/injection, schedule: Q01DX005 (ip), vehicle: Klucel (hydroxypropylcellulose) (HPC)
[9] = dose: 200.0 mg/kg/injection, schedule: Q01DX005 (ip), vehicle: Klucel (hydroxypropylcellulose) (HPC)
[10] = dose: 60.0 mg/kg/injection, schedule: Q01DX005 (ip), vehicle: Klucel (hydroxypropylcellulose) (HPC)
[11] = dose: 120.0 mg/kg/injection, schedule: Q01DX005 (ip), vehicle: Klucel (hydroxypropylcellulose) (HPC)
[12] = dose: 240.0 mg/kg/injection, schedule: Q01DX005 (ip), vehicle: Klucel (hydroxypropylcellulose) (HPC)
[13] = dose: 50.0 mg/kg/injection, schedule: Q01DX009 (ip), vehicle: saline with Tween-80
[14] = dose: 200.0 mg/kg/injection, schedule: Q01DX009 (ip), vehicle: saline with Tween-80
[15] = dose: 25.0 mg/kg/injection, schedule: Q01DX009 (ip), vehicle: saline with Tween-80

In the case of `COc1cccc(C(Nc2ncccn2)c2cc3c(cc2O)OCO3)c1O` (stereo unspecified), the T/C [1] is reported as 103 % of control, the T/C [2] is reported as 94 % of control and the T/C [3] is reported as 94 % of control.

In the case of `OCC12OCC(C=CC1O)O2` (stereo unspecified), the T/C [4] is reported as 99 % of control, the T/C (dose: 120.0 mg/kg/injection, schedule: Q01DX005 (ip), vehicle: saline) is reported as 91 % of control and the T/C (dose: 240.0 mg/kg/injection, schedule: Q01DX005 (ip), vehicle: saline) is reported as 98 % of control.

In the case of `COC(=O)C1=C(C)NC(=S)NC1c1ccco1` (stereo unspecified), the T/C [5] is reported as 95 % of control, the T/C [6] is reported as 95 % of control and the T/C (dose: 400.0 mg/kg/injection, schedule: Q04DX003 (ip), vehicle: saline with Tween-80) is reported as 100 % of control.

For `COC1=CC(=O)C2CC=CC3CC(=O)OC1C32CO` (stereo unspecified), the T/C [7] was 113 % of control, the T/C [8] was 103 % of control and the T/C [9] was 101 % of control.

With `CN(C)P(=O)(N(C)C)N1CCCC1` the T/C (dose: 50.0 mg/kg/injection, schedule: Q01DX009 (ip), vehicle: saline) was 104 % of control, the T/C (dose: 100.0 mg/kg/injection, schedule: Q01DX009 (ip), vehicle: saline) was 106 % of control and the T/C (dose: 200.0 mg/kg/injection, schedule: Q01DX009 (ip), vehicle: saline) was 105 % of control.

For `O=c1nc2n(CC(O)C(O)C(O)C(O)CO)c3ccc(Cl)cc3nc-2c(=O)[nH]1` (stereo unspecified), the T/C (dose: 50.0 mg/kg/injection, schedule: Q01DX005 (ip), vehicle: saline) was 104 % of control, the T/C (dose: 100.0 mg/kg/injection, schedule: Q01DX005 (ip), vehicle: saline) was 104 % of control and the T/C (dose: 200.0 mg/kg/injection, schedule: Q01DX005 (ip), vehicle: saline) was 104 % of control.

In the case of `Nc1nc(SCC(=O)O)[nH]c(=O)c1NS(=O)(=O)c1ccccc1[N+](=O)[O-]`, the T/C [10] is reported as 90 % of control, the T/C [11] is reported as 91 % of control and the T/C [12] is reported as 96 % of control.

In the case of `O=C1Nc2ccccc2C(=O)C1(O)c1ccccc1` (stereo unspecified), the T/C [10] is reported as 105 % of control, the T/C [11] is reported as 103 % of control and the T/C [12] is reported as 94 % of control.

For `C/C(=N\NC(=S)N1CCCCCC1)c1nccs1`, the T/C (dose: 12.5 mg/kg/injection, schedule: Q01DX005 (ip), vehicle: saline with Tween-80) was 98 % of control, the T/C (dose: 25.0 mg/kg/injection, schedule: Q01DX005 (ip), vehicle: saline with Tween-80) was 100 % of control and the T/C (dose: 50.0 mg/kg/injection, schedule: Q01DX005 (ip), vehicle: saline with Tween-80) was 102 % of control.

For `CC(=O)OC1SC(OC(C)=O)C2OC(=O)OC12` (stereo unspecified), the T/C [13] was 101 % of control, the T/C (dose: 100.0 mg/kg/injection, schedule: Q01DX009 (ip), vehicle: saline with Tween-80) was 108 % of control and the T/C [14] was 100 % of control.

With `CCC1(c2ccccc2)Nc2ccccc2C1=Nc1ccccc1` (stereo unspecified) the T/C (dose: 50.0 mg/kg/injection, schedule: Q04DX003 (ip), vehicle: saline with Tween-80) was 100 % of control, the T/C [5] was 99 % of control and the T/C [6] was 90 % of control.

`CCC(=O)Nc1ncc([N+](=O)[O-])s1` was tested, and the T/C [15] was 94 % of control, the T/C [13] was 86 % of control and the T/C [14] was 86 % of control.

For `CN(C)c1ccc(-c2cccc[n+]2C)cc1`, the T/C (dose: 1.5 mg/kg/injection, schedule: Q01DX009 (ip), vehicle: saline) was 103 % of control, the T/C (dose: 3.0 mg/kg/injection, schedule: Q01DX009 (ip), vehicle: saline) was 108 % of control and the T/C (dose: 6.0 mg/kg/injection, schedule: Q01DX009 (ip), vehicle: saline) was 109 % of control.

For `CC(C)(O)C(=O)N/N=C/c1ccc(Cl)cc1`, the T/C [1] was 101 % of control, the T/C [2] was 99 % of control and the T/C [3] was 100 % of control.

With `CC(C)=CCCC(C)(OC1OC(COC2OCC(O)C(O)C2O)C(O)C(O)C1O)C1CCC2(C)C1C(O)CC1C3(C)CCC(OC4OC(CO)C(O)C(O)C4OC4OC(CO)C(O)C(O)C4O)C(C)(C)C3CCC12C` (stereo unspecified) the T/C (dose: 18.75 mg/kg/injection, schedule: Q01DX009 (ip), vehicle: Klucel (hydroxypropylcellulose) (HPC)) was 98 % of control, the T/C (dose: 37.5 mg/kg/injection, schedule: Q01DX009 (ip), vehicle: Klucel (hydroxypropylcellulose) (HPC)) was 100 % of control and the T/C (dose: 75.0 mg/kg/injection, schedule: Q01DX009 (ip), vehicle: Klucel (hydroxypropylcellulose) (HPC)) was 92 % of control. The T/C (dose: 150.0 mg/kg/injection, schedule: Q01DX009 (ip), vehicle: Klucel (hydroxypropylcellulose) (HPC)) was 92 % of control.

With `CN(C)CC(CN(C)C)C(=O)c1ccc2c(c1)OCO2` the T/C (dose: 15.0 mg/kg/injection, schedule: Q01DX005 (ip), vehicle: saline) was 122 % of control, the T/C (dose: 30.0 mg/kg/injection, schedule: Q01DX005 (ip), vehicle: saline) was 117 % of control and the T/C [4] was 119 % of control.

With `Cc1ccc(NC(=O)Oc2ccc([N+](=O)[O-])cc2)cc1S(=O)(=O)F` the T/C [1] was 113 % of control, the T/C [2] was 104 % of control and the T/C [3] was 95 % of control.

`CC1(C)c2ccccc2Nc2ccccc21` was tested, and the T/C [5] was 100 % of control and the T/C [6] was 91 % of control.

For `O=C(O)/C=N/NP(=O)(Oc1ccccc1)Oc1ccccc1`, the T/C (dose: 25.0 mg/kg/injection, schedule: Q01DX009 (ip), vehicle: distilled water + Tween-80) was 99 % of control, the T/C (dose: 50.0 mg/kg/injection, schedule: Q01DX009 (ip), vehicle: distilled water + Tween-80) was 100 % of control and 94 % of control and the T/C (dose: 100.0 mg/kg/injection, schedule: Q01DX009 (ip), vehicle: distilled water + Tween-80) was 100 % of control and 95 % of control. The T/C (dose: 200.0 mg/kg/injection, schedule: Q01DX009 (ip), vehicle: distilled water + Tween-80) was 100 % of control and 97 % of control and the T/C (dose: 400.0 mg/kg/injection, schedule: Q01DX009 (ip), vehicle: distilled water + Tween-80) was 100 % of control and 109 % of control.

For `COc1cc(NC(=O)CNC(=O)CNC(=O)C(N)CC(C)C)cc2ccccc12` (stereo unspecified), the T/C [7] was 100 % of control, the T/C [8] was 96 % of control and the T/C [9] was 100 % of control.

With `OC(c1ccccc1)C(C(c1ccccc1)N1CCCc2ccccc21)N1CCOCC1` (stereo unspecified) the T/C [7] was 99 % of control, the T/C [8] was 93 % of control and the T/C [9] was 90 % of control.

For `CN[C@H]1CC[C@]23C[C@]24CC[C@]2(C)[C@@H]([C@H](C)N(C)C)CC[C@@]2(C)[C@@H]4CC[C@H]3C1(C)C`, the T/C (dose: 3.12 mg/kg/injection, schedule: Q01DX009 (ip), vehicle: saline with Tween-80) was 112 % of control, the T/C (dose: 6.25 mg/kg/injection, schedule: Q01DX009 (ip), vehicle: saline with Tween-80) was 100 % of control and the T/C (dose: 12.5 mg/kg/injection, schedule: Q01DX009 (ip), vehicle: saline with Tween-80) was 102 % of control. For the same compound, the T/C [15] was 102 % of control and the T/C [13] was 118 % of control.

`N#CC(C(=O)C(=O)Nc1ccc(Cl)cc1Cl)c1c(Cl)cccc1Cl` (stereo unspecified) was tested, and the T/C [1] was 100 % of control and the T/C [2] was 101 % of control.

For `C=C1C(=O)C23C(OC(=O)CCCCCCCCC)C1CCC2C12COC3(O)C(O)C1C(C)(C)CCC2O` (stereo unspecified), the T/C (dose: 3.75 mg/kg/injection, schedule: Q01DX009 (ip), vehicle: saline with Tween-80) was 103 % of control, the T/C (dose: 7.5 mg/kg/injection, schedule: Q01DX009 (ip), vehicle: saline with Tween-80) was 98 % of control and the T/C (dose: 15.0 mg/kg/injection, schedule: Q01DX009 (ip), vehicle: saline with Tween-80) was 96 % of control. The T/C (dose: 30.0 mg/kg/injection, schedule: Q01DX009 (ip), vehicle: saline with Tween-80) was 106 % of control.

`Nc1nc(-c2cccc3ccccc23)cc2ccccc12` was tested, and the T/C (dose: 12.5 mg/kg/injection, schedule: Q01DX009 (ip), vehicle: water) was 124 % of control, the T/C (dose: 100.0 mg/kg/injection, schedule: Q01DX009 (ip), vehicle: water) was 150 % of control and the T/C (dose: 200.0 mg/kg/injection, schedule: Q01DX009 (ip), vehicle: water) was 166 % of control.

`Cc1ccc(-c2cn3c(n2)SCC3)cc1` was tested, and the T/C (dose: 100.0 mg/kg/injection, schedule: Q04DX003 (ip), vehicle: Klucel (hydroxypropylcellulose) (HPC)) was 99 % of control, the T/C (dose: 200.0 mg/kg/injection, schedule: Q04DX003 (ip), vehicle: Klucel (hydroxypropylcellulose) (HPC)) was 106 % of control and the T/C (dose: 400.0 mg/kg/injection, schedule: Q04DX003 (ip), vehicle: Klucel (hydroxypropylcellulose) (HPC)) was 99 % of control.

In the case of `[N-]=[N+]=NC(=O)c1cnn(Cc2ccccc2)c1N`, the T/C (dose: 100.0 mg/kg/injection, schedule: Q01DX001 (ip), vehicle: saline with Tween-80) is reported as 103 % of control and the T/C (dose: 200.0 mg/kg/injection, schedule: Q01DX001 (ip), vehicle: saline with Tween-80) is reported as 101 % of control.

`O=C1C(c2ccccc2)C2NC(C1c1ccccc1)C([N+](=O)[O-])C=C2[N+](=O)[O-]` (stereo unspecified) was tested, and the T/C (dose: 25.0 mg/kg/injection, schedule: Q01DX001 (ip), vehicle: Klucel (hydroxypropylcellulose) (HPC)) was 94 % of control and the T/C (dose: 50.0 mg/kg/injection, schedule: Q01DX001 (ip), vehicle: Klucel (hydroxypropylcellulose) (HPC)) was 90 % of control.
